In US20190315806A1, “POLYMYXIN DERIVATIVE, PREPARATION METHOD AND APPLICATION THEREOF” (priority 2016, published 2019):
In brackets after ≈: the same amount, converted by molar mass. Where two headings read alike, the source gives them in different places. Where a SMILES comes first, the peptide text is derived from it. Bridges are numbered along the chain shown (N, C = ends). [ ]: non-standard residue; d: D form. The star is where a group is joined. Heptanoyl(6-Me) = CC(C)CCCCC(=O)*; X2 = CC[C@H](C)CCCCC(=O)*; Octanoyl = CCCCCCCC(=O)*; Dab = NCC[C@H](N)C(=O)O

Experiments:
Assay type in all cases: cell-based
[1] = test system: Klebsiella pneumoniae ATCC BAA-2146 (NDM-1); assay: Antibacterial activity, MIC by dish double dilution method
Procedure: (§1) The minimum inhibitory concentration (MIC) was determined by means of dish double dilution method using a Multipoint inoculator according to the CLSI recommended method. The compounds of the present invention (for example, the compounds prepared in the Embodiments) and the reference substances were diluted twice each time with the broth into various desired concentrations, and appropriate amounts were added to the dishes. Agar medium is melted, and then quantitatively injected into the dish containing the drug solution, and mixed. The final concentrations of the compounds of the invention (e.g., the compounds prepared in the Embodiments) and the controls were 0.03, 0.06, 0.125, 0.25 . . . 128 μg/mL, respectively. The test bacteria were cultured overnight with nutrient broth, brain heart infusion or HTM broth. During the tests, the bacterial solutions were diluted appropriately, and the test bacteria (inoculation amount 10^4 CFU/dot) were inoculated on the surface of the drug-containing agar by a multi-point inoculator. After drying, the bacterial was incubated for 18 to 24 hours at 35° C., the results were observed, the minimum concentrations of the compounds of the present invention (for example, the compounds prepared in the Embodiments) and the controls contained in the dishes with no growth of colonies were MICs.
(§2) The strains used in the antibacterial activity experiments were from the American Type Culture Collection (ATCC) and clinical isolates.
(§3) The strains used for the experiments on antibacterial activity included Escherichia coli ATCC 25922, Klebsiella pneumoniae ATCC BAA-2146 (NDM-1), Pseudomonas aeruginosa ATCC 27853, Acinetobacter baumannii ATCC 19606 and Staphylococcus epidermidis ATCC 12228.
(§4) Tested samples: polymyxin derivatives prepared according to the technical scheme of the present invention;
(§5) Controls: polymyxin B sulfate and colistin (polymyxin E sulfate).

[2] = test system: Staphylococcus epidermidis ATCC 12228
Procedure: as §1, §2, §3, §4, §5

[3] = test system: Pseudomonas aeruginosa ATCC 27853
Procedure: as §1, §2, §3, §4, §5

[4] = test system: Escherichia coli ATCC 25922
Procedure: as §1, §2, §3, §4, §5

[5] = test system: Acinetobacter baumannii ATCC 19606
Procedure: as §1, §2, §3, §4, §5

[6] = agar dilution, 10^4 CFU/dot, 18 to 24 hours at 35° C.

MIC K. pneumoniae ATCC BAA-2146 (NDM-1) ([1]; ATCC BAA-2146)	MIC S. epidermidis ATCC 12228 ([2]; ATCC 12228)	MIC P. aeruginosa ATCC 27853 ([3]; ATCC 27853)	MIC E. coli ATCC 25922 ([4]; ATCC 25922)	MIC A. baumannii ATCC 19606 ([5]; ATCC 19606)	SMILES	MIC K. pneumoniae ATCC BAA-2146 (NDM-1) [1, 6]	MIC S. epidermidis ATCC 12228 [2, 6]	MIC P. aeruginosa ATCC 27853 [3, 6]	MIC E. coli ATCC 25922 [4, 6]	MIC A. baumannii ATCC 19606 [5, 6]
0.5 µg/mL (≈ 0.433 µM)	32 µg/mL (≈ 27.7 µM)	1 µg/mL (≈ 0.865 µM)	0.5 µg/mL (≈ 0.433 µM)	0.5 µg/mL (≈ 0.433 µM)	CCCCCCCC(=O)N[C@@H](CCN)C(=O)N[C@H](C(=O)N[C@@H](CCN)C(=O)N[C@H]1CCNC(=O)[C@H]([C@@H](C)O)NC(=O)[C@H](CCN)NC(=O)[C@H](CCN)NC(=O)[C@H](CC(C)C)NC(=O)[C@@H](CC(C)C)NC(=O)[C@H](CCN)NC1=O)[C@@H](C)O [Compound 78, octanoyl-Dab-Thr-Dab-ring(4-10)[Dab-Dab-D-Leu-Leu-Dab-Dab-Thr]] (Octanoyl-[Dab]T[Dab][Dab][Dab][dL]L[Dab][Dab]T; lactam 4-C)	–	–	–	–	–
1 µg/mL (≈ 0.865 µM)	>128 µg/mL	1 µg/mL (≈ 0.865 µM)	0.5 µg/mL (≈ 0.433 µM)	0.5 µg/mL (≈ 0.433 µM)	CCCCCCCC(=O)N[C@@H](CCN)C(=O)N[C@H](C(=O)N[C@@H](CCN)C(=O)N[C@H]1CCNC(=O)[C@H]([C@@H](C)O)NC(=O)[C@H](CCN)NC(=O)[C@H](CCN)NC(=O)[C@H]([C@@H](C)CC)NC(=O)[C@@H](CC(C)C)NC(=O)[C@H](CCN)NC1=O)[C@@H](C)O [Compound 79, octanoyl-Dab-Thr-Dab-ring(4-10)[Dab-Dab-D-Leu-Ile-Dab-Dab-Thr]] (Octanoyl-[Dab]T[Dab][Dab][Dab][dL]I[Dab][Dab]T; lactam 4-C)	–	–	–	–	–

Second part, the compound before the results:

SMILES	MIC K. pneumoniae ATCC BAA-2146 (NDM-1) ([1]; ATCC BAA-2146)	MIC S. epidermidis ATCC 12228 ([2]; ATCC 12228)	MIC P. aeruginosa ATCC 27853 ([3]; ATCC 27853)	MIC E. coli ATCC 25922 ([4]; ATCC 25922)	MIC A. baumannii ATCC 19606 ([5]; ATCC 19606)	MIC K. pneumoniae ATCC BAA-2146 (NDM-1) [1, 6]	MIC S. epidermidis ATCC 12228 [2, 6]	MIC P. aeruginosa ATCC 27853 [3, 6]	MIC E. coli ATCC 25922 [4, 6]	MIC A. baumannii ATCC 19606 [5, 6]
CCCCCCCC(=O)N[C@@H](CCN)C(=O)N[C@H](C(=O)N[C@@H](CO)C(=O)N[C@H]1CCNC(=O)[C@H]([C@@H](C)O)NC(=O)[C@H](CCN)NC(=O)[C@H](CCN)NC(=O)[C@H](CC(C)C)NC(=O)[C@@H](Cc2ccccc2)NC(=O)[C@H](CCN)NC1=O)[C@@H](C)O [Compound 54, octanoyl-Dab-Thr-Ser-ring(4-10)[Dab-Dab-D-Phe-Leu-Dab-Dab-Thr]] (Octanoyl-[Dab]TS[Dab][Dab][dF]L[Dab][Dab]T; lactam 4-C)	1 µg/mL (≈ 0.85 µM)	64 µg/mL (≈ 54.4 µM)	1 µg/mL (≈ 0.85 µM)	0.5 µg/mL (≈ 0.425 µM)	0.5 µg/mL (≈ 0.425 µM)	–	–	–	–	–
CCCCCCCC(=O)N[C@@H](CCN)C(=O)N[C@H](C(=O)N[C@H](CO)C(=O)N[C@H]1CCNC(=O)[C@H]([C@@H](C)O)NC(=O)[C@H](CCN)NC(=O)[C@H](CCN)NC(=O)[C@H]([C@@H](C)O)NC(=O)[C@@H](CC(C)C)NC(=O)[C@H](CCN)NC1=O)[C@@H](C)O [Compound 60, octanoyl-Dab-Thr-D-Ser-ring(4-10)[Dab-Dab-D-Leu-Thr-Dab-Dab-Thr]] (Octanoyl-[Dab]T[dS][Dab][Dab][dL]T[Dab][Dab]T; lactam 4-C)	0.5 µg/mL (≈ 0.442 µM)	>128 µg/mL	2 µg/mL (≈ 1.77 µM)	0.12 µg/mL (≈ 0.106 µM)	0.06 µg/mL (≈ 0.0531 µM)	–	–	–	–	–
CC[C@H](C)CCCCC(=O)N[C@@H](CCN)C(=O)N[C@H](C(=O)N[C@@H](CCN)C(=O)N[C@H]1CCNC(=O)[C@H]([C@@H](C)O)NC(=O)[C@H](CCN)NC(=O)[C@H](CCN)NC(=O)[C@H](CC(C)C)NC(=O)[C@@H](CC(C)C)NC(=O)[C@H](CCN)NC1=O)[C@@H](C)O [Compound 70, (S)-6-methyloctanoyl-Dab-Thr-Dab-ring(4-10)[Dab-Dab-D-Leu-Leu-Dab-Dab-Thr]] (X2-[Dab]T[Dab][Dab][Dab][dL]L[Dab][Dab]T; lactam 4-C)	–	–	–	–	–	1 µg/mL (≈ 0.855 µM)	64 µg/mL (≈ 54.7 µM)	2 µg/mL (≈ 1.71 µM)	1 µg/mL (≈ 0.855 µM)	1 µg/mL (≈ 0.855 µM)
CC(C)CCCCC(=O)N[C@@H](CCN)C(=O)N[C@H](C(=O)N[C@@H](CCN)C(=O)N[C@H]1CCNC(=O)[C@H]([C@@H](C)O)NC(=O)[C@H](CCN)NC(=O)[C@H](CCN)NC(=O)[C@H](CC(C)C)NC(=O)[C@@H](CC(C)C)NC(=O)[C@H](CCN)NC1=O)[C@@H](C)O [Compound 74, 6-methylheptanoyl-Dab-Thr-Dab-ring(4-10)[Dab-Dab-D-Leu-Leu-Dab-Dab-Thr]] ({Heptanoyl(6-Me)}-[Dab]T[Dab][Dab][Dab][dL]L[Dab][Dab]T; lactam 4-C)	–	64 µg/mL (≈ 55.4 µM)	2 µg/mL (≈ 1.73 µM)	0.5 µg/mL (≈ 0.433 µM)	0.5 µg/mL (≈ 0.433 µM)	1 µg/mL (≈ 0.865 µM)	–	–	–	–
